# In paper PMC5607274, “An iterative compound screening contest method for identifying target protein inhibitors using the tyrosine-protein kinase Yes” (Scientific Reports, 2017):
# Molecular target: T1, human recombinant Yes [a.a. 2–543 (end)] (Homo sapiens, UniProt P07947)
# T1 construct: human recombinant Yes [a.a; 2–543 (end)]; purchased BPS Bioscience 40488
# Assay: ADP-Glo kinase assay, inhibition rates of Yes phosphorylation activity (first and second screening)
# Format: biochemical
# Details: first screening; mean of n = 4 wells; 10 μmol L−1 compound
# In short: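 ADP-Glo luminescence measured inhibition of human recombinant Yes (a.a. 2–543) phosphorylation activity. In the first screen, each compound ran in 4 wells and inhibition rates were averaged. The second screen retested hits as compounds dissolved from fresh powder.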
# T1 sequence (P07947 2-543): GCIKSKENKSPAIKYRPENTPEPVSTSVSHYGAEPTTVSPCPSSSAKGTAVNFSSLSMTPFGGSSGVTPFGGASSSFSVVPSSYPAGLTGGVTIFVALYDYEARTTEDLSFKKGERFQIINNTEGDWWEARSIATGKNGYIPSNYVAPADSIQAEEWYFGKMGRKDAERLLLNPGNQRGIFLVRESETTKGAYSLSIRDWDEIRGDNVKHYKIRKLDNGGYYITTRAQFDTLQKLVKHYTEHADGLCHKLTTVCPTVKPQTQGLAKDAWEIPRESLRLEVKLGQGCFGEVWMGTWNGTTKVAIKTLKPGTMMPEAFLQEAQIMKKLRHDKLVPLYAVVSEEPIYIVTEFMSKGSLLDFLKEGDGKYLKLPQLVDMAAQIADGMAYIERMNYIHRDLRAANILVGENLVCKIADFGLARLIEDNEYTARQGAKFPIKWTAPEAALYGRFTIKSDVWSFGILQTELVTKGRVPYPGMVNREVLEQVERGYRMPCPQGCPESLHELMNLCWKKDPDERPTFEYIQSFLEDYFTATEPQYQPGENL
row,Structure (SMILES),First screening IR (inhibition rate) [%]
1,O=C(CCNC(=O)c1ccco1)Nc1ccc2nc(N3CCCC3)sc2c1 [Compound Z226430254],3
2,O=C(Nc1cnc2ccccc2c1)c1ccc(-n2ccc(C(F)(F)F)n2)cc1 [Compound Z815840280],9
3,O=C(Nc1nc2ccccc2[nH]1)c1ccc(N2CCCC2=O)cc1 [Compound Z27664887],8
4,NC(=O)Nc1ccc(NC(=O)Cc2csc(Cc3ccccc3)n2)cc1 [Compound Z383135670],-14
5,Cc1ccc(CNC(C)(CO)c2cccc(C(F)(F)F)c2)nc1 (stereo not shown) [Compound Z1426135114],10
6,COc1ccc2cc(-c3cc(C(=O)OCC(=O)Nc4cccc(C)c4)c4ccccc4n3)ccc2c1 [Compound Z18792577],-12
7,O=c1[nH]c(SCc2coc(-c3ccccc3)n2)nc2sccc12 [Compound Z228473210],-4
8,Cc1cccc(C)c1Nc1nnc(SCC(=O)NC(Cc2c[nH]c3ccccc23)C(=O)O)s1 (stereo not shown) [Compound Z20162836],3
9,CCC(Sc1n[nH]c(C(C)C)n1)C(=O)Nc1ccc(F)cc1 (stereo not shown) [Compound Z193785446],-8
10,Cn1c(C(=O)Oc2ccc(NC(=O)c3ccco3)cc2)cc2ccccc21 [Compound Z762214972],-1
11,Cc1noc(C(C)NC(=O)C2CSCN2C(=O)c2ccccc2)n1 (stereo not shown) [Compound Z954394146],-12
12,CS(=O)(=O)N(C(=O)c1ccc(OC(F)(F)F)cc1)C1CCC(O)CC1 (stereo not shown) [Compound Z1328888966],2
13,Clc1ccc(Oc2cccc(-c3nc4c5ccccc5c5ccccc5c4[nH]3)c2)cc1 [Compound Z57984419],2
14,CC(C)(C)C(=O)NCc1ccc(C(=O)COC(=O)c2cc3c(s2)CCC3)s1 [Compound Z73973253],9
15,Cc1cc(N2CCN(C(=O)Nc3cc(C)c4cn[nH]c4c3)CC2)nc(C)n1 [Compound Z1557589830],42
16,CC(C)c1cc(C(=O)N(C)C2CCCCC2N(C)C(=O)c2cc(C(C)C)[nH]n2)n[nH]1 (stereo not shown) [Compound Z1511609753],5
17,O=C1CCc2cc(C(=O)Nc3nnc(SCc4c(Cl)cccc4Cl)s3)ccc2N1 [Compound Z164941068],-3
18,Cn1nc([N+](=O)[O-])c2c(-c3nc4ccccc4n3C)c(N)n(C3CCCCC3)c2c1=O [Compound Z56852588],5
19,Clc1ccccc1Cn1ncc2c(NCCc3ccccc3)ncnc21 [Compound Z1172235413],4
20,O=C(Nc1n[nH]c(-c2ccoc2)n1)c1cc(-c2ccc(F)cc2)on1 [Compound Z1426521974],4
21,CC(C)n1ncc2c(C(=O)Nc3ccc(F)c([N+](=O)[O-])c3)cc(-c3ccco3)nc21 [Compound Z216541962],-1

row,Structure (SMILES),First screening IR (inhibition rate) [%]
1,Cc1cccc(N=C2NN=C(c3ccc(CCNS(C)(=O)=O)s3)CS2)c1C [Compound Z232307154],37
2,CC(C)(CNC(=O)c1cccc(N2CC(O)=C(c3nc4ccccc4s3)C2=N)c1)N1CCOCC1 [Compound Z32220177],8
3,Cc1ccc(C)c(-n2c(=O)/c(=C/c3ccc(OC(F)F)cc3)s/c2=C(/C#N)C(=O)NCCN2CCOCC2)c1 [Compound Z47852683],15
4,CCNC(=O)CN(CC)S(=O)(=O)c1cnn(-c2ccc(F)cc2)c1C [Compound Z1403244361],2
5,O=C(CN(Cc1ccccc1)S(=O)(=O)c1ccc(Cl)cc1)N1CCN(c2ccccn2)CC1 [Compound Z26735553],16
6,COc1ccc2c(c1)CC/C(=C\c1ccc(Cl)c(Cl)c1)C2=O [Compound Z46584361],30
7,CC(=O)N1CC=C(c2ccc(Oc3nc(-c4cccnc4)nc4ccccc34)cc2)CC1 [Compound Z196157908],-13
8,O=c1c2cccc3c2c(nn1-c1ccccc1)-c1ccccc1-3 [Compound Z57229152],18
9,Cc1cc(N(Cc2cn3ccsc3n2)C(C)C)ccc1C(N)=O [Compound Z1127155490],-7
10,Cn1ncc2c(N3CCOC(c4ccc(F)cc4)C3)ncnc21 (stereo not shown) [Compound Z319092016],-2
11,COc1ccc(NC(=O)C(=O)c2c(C)nn(-c3ccccc3)c2C)cc1OCc1cn2ccccc2n1 [Compound Z605682156],-5
12,CCOC(=O)c1c(Nc2nc3ccccc3nc2N2CCN(Cc3ccccc3)CC2)sc(C)c1C [Compound Z56866112],2
13,O=C(Nc1ccc(F)cc1)c1nnc(CSc2ncc(-c3ccccc3)[nH]2)s1 [Compound Z325218452],0
14,CC(C)C(NC(=O)c1ccc(S(=O)(=O)N(C)C)cc1)c1ccc2c(c1)OCCCO2 (stereo not shown) [Compound Z91218489],5
15,CCCn1c(=O)[nH]c(=O)c2cc(C(=O)N(CC)Cc3ccc4c(c3)OCO4)cnc21 [Compound Z284160386],5
16,CCCCN(S(C)(=O)=O)S(=O)(=O)c1ccc(OC)cc1 [Compound Z85927834],1
17,Cc1nc(CN)ccc1C(=O)Nc1ccc(Oc2ccc(Cl)cc2Cl)c(F)c1.Cl [Compound Z1561183584],-5
18,Cc1n[nH]c(C)c1/C=C/C(=O)c1ccc(N2CCCC2=O)cc1 [Compound Z424802904],6
19,CCN(C(=O)c1ccc2c(c1)CC(c1ccccc1)OC2=O)c1ncc[nH]1 (stereo not shown) [Compound Z1474089033],-8
20,Cc1c(C#N)c(NC(=O)CN2CCN(CC(=O)N3CCCCC3)CC2)n(-c2cccc(F)c2)c1C [Compound Z195846234],0
21,CCN(CCCNC(=O)c1cn(-c2ccccc2)nc1-c1cccnc1)c1ccccc1 [Compound Z96041573],-8

row,Structure (SMILES),First screening IR (inhibition rate) [%]
1,O=C(Nc1cc(C(F)(F)F)ccc1N1CCCCC1)c1ccc(Cl)c(S(=O)(=O)Nc2ccccc2C(=O)Nc2cc(C(F)(F)F)ccc2N2CCCCC2)c1 [Compound Z56805970],44
2,CC(C)(C)c1[nH]ncc1/C=C1/CCn2c1nc1cc(Cl)ccc1c2=O [Compound Z821199838],-3
3,CN(C)c1nc2ccc(NC(=O)c3csc(-c4ccoc4)n3)cc2o1 [Compound Z1404550995],10
4,CC(C)c1ccc(Sc2ccc(N3CCC(C(=O)O)CC3)nn2)cc1 [Compound Z1863492097],1
5,O=C(NCCCOc1ccccc1F)c1ccc2nc[nH]c2c1 [Compound Z147064724],0
6,CC(C)c1nncn1CCNC(=O)C(c1cc(Cl)cc(Cl)c1)N(C)C (stereo not shown) [Compound Z1430823330],5
7,Cc1cn2c3c(=O)n(CC(C)C)c(=O)n(C)c3nc2n1-c1ccc(N(C)C)cc1 [Compound Z281877508],6
8,CC(C)(C(=O)N1CCN(C(=O)C2CCC(=O)NC2)CC1)c1ccccc1 (stereo not shown) [Compound Z645877938],-20
9,CCN(C(C)C)S(=O)(=O)c1ccc(S(C)(=O)=O)cc1 [Compound Z736710192],-4
10,CCC(Sc1nc2ccccc2c2nc(CCN3CCCCC3)nn12)C(=O)Nc1ccc2c(c1)OCO2 (stereo not shown) [Compound Z1157834229],-8
11,Cl.O=C(NCCC1CCCNC1)c1c(F)cccc1Br (stereo not shown) [Compound Z1457134316],-2
12,CN(C)C(=O)Cc1ccccc1NCc1ccc(-n2ccnc2)cc1 [Compound Z1462566317],13
13,CCN(CC)S(=O)(=O)c1ccc(OC)c(NC(=S)NCc2ccccc2)c1 [Compound Z45779271],13
14,COC(=O)c1cc(NC(=O)C2=C(Cl)CCCC2)cc(C(=O)OC)c1 [Compound Z223943920],-1
15,Cc1cccc(C)c1OC1CCN(c2ncnc3c2cnn3C)CC1 [Compound Z646031500],8
16,Cc1nc(-c2cc(C(=O)N3CCCC(n4ccnc4)C3)co2)cs1 (stereo not shown) [Compound Z1102775620],-5
17,CC(NC(=O)C1=NN(c2ccc(F)cc2)C(C(N)=O)C1)c1ccc(F)cc1F (stereo not shown) [Compound Z295508576],6
18,Cc1cc(/C=N/Nc2nc(-c3ccc(F)cc3)cs2)c(C)n1-c1cc(Cl)ccc1Cl [Compound Z56791351],-8
19,O=C(NCc1ccc(-n2ccnc2)nc1)c1ccc(-c2ccccc2)cc1 [Compound Z363639532],3
20,CC(O)C1CCN(C(=O)NCC2CC(C)N(Cc3ccccc3)C2)C1 (stereo not shown) [Compound Z1658298345],-9

# Same assay, conditions: second screening, dissolved from fresh powder; n = 4; 10 μmol L−1 compound
row,Structure (SMILES),Second screening IR (inhibition rate) [%]
1,Cc1cccc(N=C2NN=C(c3ccc(CCNS(C)(=O)=O)s3)CS2)c1C [Compound Z232307154],-3
2,O=C(Nc1cc(C(F)(F)F)ccc1N1CCCCC1)c1ccc(Cl)c(S(=O)(=O)Nc2ccccc2C(=O)Nc2cc(C(F)(F)F)ccc2N2CCCCC2)c1 [Compound Z56805970],-10
